Measured values published in patent US9738848B2, “Polyfunctional lubricant composition” (priority 2013, dated 2017).

How the values were obtained:
[1] = tested on: Larval medaka (Oryzias latipes); conditions: cited from earlier work
[2] = Hydrolyzability test (acid value after storage with water); format: physicochemical; conditions: 1 mass percent water, 60° C.
Procedure: 1 Mass percent of water was added to phosphorus compounds and the mixture was stored in a thermostat at 60° C. The compounds were evaluated for hydrolyzability by measuring an acid value at each number of days elapsed.

Rainbow trout = conditions: cited from earlier work

| Compound | Larval medaka (Oryzias latipes) acute toxicity 96h-LC50 [1] | Hydrolyzability (acid value over days elapsed) [2] | Rainbow trout acute toxicity 96h-LC50 (Rainbow trout) |
| --- | --- | --- | --- |
| Tricresyl phosphate | 0.84 µg/mL |  |  |
| O=P(Oc1ccccc1)(Oc1ccccc1)Oc1ccccc1 [Triphenyl phosphate] | 1.3 µg/mL | high hydrolyzability |  |
| Triisopropyl phenyl phosphate | >100 µg/mL |  | 1.6 µg/mL |
